The results in this text go back to US20190375778A1, “ADENOSINE DERIVATIVES FOR USE IN THE TREATMENT OF CANCER” (NuCana plc, priority 2016, published 2019).

Common to all, as to type: cell-based
One data set deals with CTS cell line. The data set can be described thus: Intracellular 8-Cl-ATP/ATP by LC-MS/MS, CTS. The conditions noted are these: for difference in intracellular accumulation of 8-Cl-ATP on inhibiting hENT1: with NBTI. As for the experimental part: Cell lines with 3×10^6 cells/ml were used. Cells were treated with 1 μl of 20 μM of each 8-Cl-A, compound A, compound B and compound D and incubated for 2 hours at 37° C. with 5% CO2. After incubation, the cells were centrifuged (ambient, 1200 rpm, 5 minutes), the supernatant was removed, and the pellet was washed with lml of PBS and centrifuged (ambient, 1200 rpm, 5 minutes). The supernatant was removed, the pellet was reconstituted in 100 μl of PBS and 100 μl of 0.8M perchloric acid. This was then centrifuged (ambient, 1200 rpm, 5 minutes) and 180 μl of the supernatant was transferred to new tubes and stored at −80° C. until time of analysis.
(§1) For inhibitor studies the cell lines were treated in the same way as described above but before treatment with drugs, a number of inhibitors were added: • 1) Nitrobenzylthioinosine (NBTI) (Sigma-Aldrich, St. Louis, Mo.) inhibits hENT1. • 2) A-134974 dihydrochloride hydrate (Sigma-Aldrich, St. Louis, Mo.) inhibits adenosine kinase. • 3) EHNA hydrochloride (Sigma-Aldrich, St. Louis, Mo.) inhibits adenosine deaminase.
Cells were treated with 1 μl of 10 μM of each inhibitor and left for 5 minutes before adding the drug. The cells were then incubated for 2 hours at 37° C. with 5% CO2.
The analytes were resolved using an ultra-performance liquid chromatography system (Accela UPLC, Thermo Scientific, UK) equipped with a Biobasic A×5 μm, 50×2.1 mm column (Thermo Electron Corporation, Murrieta, Calif., USA) and mobile phase consisting of a mixture of 10 mM NH4Ac in ACN/H2O (30:70 v/v), pH6.0 (A), and 1 mM NH4Ac in ACN/H2O (30:70 v/v), pH10.5 (B). The mobile phase gradient was employed, comprising: buffer A=95% at 0-0.5 minutes, from 95 to 0% over 1.25 minutes, held at 0% for 1.75 minutes, from 0-95% over 0.1 minutes, ending with 95% for 2.9 minutes, all at a flow rate of 500 μl/min.
For compounds detection a triple stage quadrupole Vantage mass spectrometry system (Thermo Scientific, UK) equipped with an electrospray ion source was used. Samples were analysed in the Multiple Reaction Monitoring, negative ion modes at spray voltage 3000V.
(§2) The dose-response curves of cytotoxicity of the drugs was determined using non-linear regression analysis of percentage cell viability versus concentration and EC50 values were obtained. The intracellular assay was conducted in five repeats for each condition. Intracellular assay was determined using paired T test (two-tailed) analysis of 8-ChloroATP/ATP concentration and p values were obtained. Drug stability in human plasma was determined using two-way ANOVA analysis. For all the analysis, Prism Software program (GraphPad Software) was used.

In a further data set the test system is CTS. Nature of the data set: ATP ViaLight cytotoxicity assay, CTS. The conditions noted are these: 72 h. As for the experimental part: HL-60, CTS, and K-562 are leukaemia cell lines, which were obtained from the American Type Culture Collection (ATCC), Middlesex. HL-60 cell line is of acute promyelocytic leukaemia; CTS cell line is of acute myeloid leukaemia; and K-562 cell line is of chronic myeloid leukaemia.
HL-60, CTS, and K-562 cell lines were cultured in RPMI-1640 medium (Sigma Aldrich, UK), which was supplemented with 10% Fetal Bovine Serum (FBS) (PAA Laboratories), 1% amphotericin B (5.5 ml) and 1% penicillin/streptomycin (5.5 ml) (PAA Laboratories) and grown in flasks at 37° C. incubator with 5% CO2.
as §1
[…] For inhibitor studies, 10 M concentration of each inhibitor was added before drugs and incubated for 72 hours at 37° C. with 5% CO2.
After incubation, 50 μl of cell lysis reagent was added to the 96 well plates to release the intracellular ATP, followed by 100 μl of ATP monitoring reagent (AMR). The luminescent values of each well were determined using FLUOstar OPTIMA microplate reader (BMG Labtech) which converted ATP into light by using luciferase enzyme.
as §2

The test system of the next data set is KG1a cell line. The data set can be described thus: Annexin V/propidium iodide cytotoxicity, KG1a unsorted. To be noted: for LD50: Homo sapiens, KG-1a, Annexin V/propidium iodide, 72 hrs; for cytotoxic potency compared in words: KG1a, versus 8-chloroadenosine or other isomers (FIG. 1, FIG. 7). As for the experimental part: A further comparative analysis of the toxicity of compounds in the KG1a cell line over an extended dose range was carried out, and the relative effect assessed of the compounds on the leukaemic stem cell compartment within the KG1a cell line, across the entire dose range. Thus, experimental tests were performed on certain compounds of the present invention to assess their ability to target cancer stem cells in a leukaemic cell line. The acute myeloid leukaemia (AML) cell line, KG1a, was employed to assess the relative effect of compounds on the stem cell compartment. The KG1a cell line was selected because it manifests a minor stem cell-like compartment with a distinct immunophenotype (Lin^−/CD34^+/CD38^−/CD123^+).
Cells of the KG1a cell line were maintained in RPMI medium (Invitrogen, Paisley, UK) supplemented with 100 units/ml penicillin, 100 μg/ml streptomycin and 20% foetal calf serum. Cells were subsequently aliquoted (10^5 cells/100 μl) into 96-well plates and were incubated at 37° C. in a humidified 5% carbon dioxide atmosphere for 72 hrs in the presence of nucleoside analogues and their respective nucleotide analogues (known as ProTides) at concentrations that were experimentally determined for each series of compounds. In addition, control cultures were carried out to which no drug was added. Cells were subsequently harvested by centrifugation and were analyzed by flow cytometry using the Annexin V assay.
Cultured cells were harvested by centrifugation and then resuspended in 195 μl of calcium-rich buffer. Subsequently, 5 μl of Annexin V (Caltag Medsystems, Botolph Claydon, UK) was added to the cell suspension and cells were incubated in the dark for 10 mins prior to washing. Cells were finally resuspended in 190 μl of calcium-rich buffer together with 10 μl of propidium iodide. Apoptosis was assessed by dual-colour immunofluorescent flow cytometry as described previously. Subsequently LD50 values (the dose required to kill 50% of the cells in a culture) were calculated for each nucleoside analogue and ProTide.
The data obtained in these experiments were evaluated using one way ANOVA. All data was confirmed as Gaussian or a Gaussian approximation using the omnibus K2 test. LD50 values were calculated from the non-linear regression and line of best-fit analysis of the sigmoidal dose-response curves. All statistical analyses were performed using Graphpad Prism 6.0 software (Graphpad Software Inc., San Diego, Calif.).

Setting [1] is: with A-134974 (adenosine kinase inhibitor).

As to `C[C@H](NP(=O)(OC[C@H]1O[C@@H](n2c(Cl)nc3c(N)ncnc32)C(O)C1O)Oc1cccc2ccccc12)C(=O)OCc1ccccc1` (stereo partly drawn) [Compound D, (2S)-Benzyl 2-(((((2R,3S,4R,5R)-5-(6-amino-8-chloro-9H-purin-9-yl)-3,4-dihydroxy-tetrahydrofuran-2-yl)methoxynaphthalene-1-yloxy)phosphoryl)amino)propanoate], the “difference in intracellular accumulation of 8-Cl-ATP on inhibiting hENT1” value (“difference … on inhibiting hENT1” for short) with CTS cell line is on record as “did not produce significant difference”. The EC50 (as a rule, the concentration at which the effect is half-maximal) in the data set on CTS (Control (no inhibitor)) was 2.64 µM; in the data set with CTS (setting [1]) it was 10.3 µM; in the data set with CTS (with NBTI (hENT1 inhibitor)), 1.46 µM. Besides, the LD50 with KG1a cell line was 3.8 µM. For the same molecule, the “cytotoxic potency compared in words” value in the data set with KG1a cell line was “significantly (P<0.0001) more cytotoxic”.

With `Nc1ncnc2c1nc(Cl)n2[C@@H]1O[C@H](COP(=O)(NCC(=O)OCc2ccccc2)NCC(=O)OCc2ccccc2)C(O)C1O` (stereo partly shown) [Compound AC, 8-Chloroadenosine 5′-O-bis(benzyloxy-glycin-N-yl) phosphate], the “cytotoxic potency compared in words” value in the data set with KG1a cell line is “not as cytotoxic as Isomer A of Compound B”.

Turning to `Nc1ncnc2c1nc(Cl)n2[C@@H]1O[C@H](CO)[C@@H](O)[C@H]1O` [8-chloroadenosine, 8-Chloroadenosine, reference compound], the “8-Cl-ATP/ATP ratio after inhibiting adenosine kinase” value in the data set with CTS cell line (with A-134974) is on record as “almost zero”. Also, the results for the EC50 in the data set on CTS (Control (no inhibitor)) and in the data set on CTS (with NBTI (hENT1 inhibitor)) were 0.32 µM and 5.48 µM, respectively.

As to `CCCCCOC(=O)[C@H](C)NP(=O)(OC[C@H]1O[C@@H](n2c(Cl)nc3c(N)ncnc32)C(O)C1O)Oc1cccc2ccccc12` (stereo partly drawn) [Compound E, (2S)-Pentyl 2-(((((2R,3S,4R,5R)-5-(6-amino-8-chloro-9H-purin-9-yl)-3,4-dihydroxy-tetrahydrofuran-2-yl)methoxnaphthalene-1-yloxy)phosphoryl)amino)propanoate], in the data set on KG1a cell line, the LD50 turned out to be 20 µM and the “cytotoxic potency compared in words” value is “less potent than 8-chloroadenosine”.

In the data set on KG1a cell line, `C[C@H](NP(=O)(OC[C@H]1O[C@@H](n2c(Cl)nc3c(N)ncnc32)[C@H](O)[C@@H]1O)Oc1ccccc1)C(=O)OCc1ccccc1` (mixture of isomers) [C, (2S)-Benzyl 2-(((((2R,3S,4R,5R)-5-(6-amino-8-chloro-9H-purin-9-yl)-3,4-dihydroxy-tetrahydrofuran-2-yl)methoxy)(phenoxy)phosphoryl)amino)propanoate] gave an LD50 of 1.6 µM.

With `Nc1ncnc2c1nc(Cl)n2[C@@H]1O[C@H](COP(=O)(NCC(=O)OCc2ccccc2)Oc2ccccc2)[C@@H](O)[C@H]1O` (mixture of isomers) [Compound B, Benzyl 2-(((((2R,3S,4R,5R)-5-(6-amino-8-chloro-9H-purin-9-yl)-3,4-dihydroxytetra-hydrofuran-2-yl)methoxy)(phenoxy)phosphoryl)amino)acetate], in the data set on CTS cell line (with A-134974), the “difference in intracellular accumulation of 8-Cl-ATP on inhibiting adenosine kinase” value is “did not produce significant difference”. Further, in the data set on CTS cell line, the “difference … on inhibiting hENT1” value is recorded as “did not produce significant difference”. The EC50 in the data set with CTS (Control (no inhibitor)) turned out to be 16.3 µM; in the data set with CTS (with NBTI (hENT1 inhibitor)) it was 63.9 µM. The molecule further returned an LD50 with KG1a cell line of 7.1 µM.

With `Nc1ncnc2c1nc(Cl)n2[C@@H]1O[C@H](COP(=O)(NCC(=O)OC2CCCCC2)Oc2ccccc2)[C@@H](O)[C@H]1O` (mixture of isomers) [Compound A, Cyclohexyl 2-(((((2R,3S,4R,5R)-5-(6-amino-8-chloro-9H-purin-9-yl)-3,4-dihydroxy-tetrahydrofuran-2-yl)methoxy)(phenoxy)phosphoryl)amino)acetate], the “difference in intracellular accumulation of 8-Cl-ATP on inhibiting adenosine kinase” value in the data set on CTS cell line (with A-134974) is reported as “did not produce significant difference”. The “difference … on inhibiting hENT1” value in the data set on CTS cell line is reported as “did not produce significant difference”. For the same molecule, the values for the EC50 with CTS (setting [1]) and in the data set with CTS (with NBTI (hENT1 inhibitor)) were 28 µM and 270 µM, respectively.
